Assay results from the NIST ThermoML archive (doi:10.1021/acs.jced.8b00008).

Assay: xn = mol fraction of the nth substance listed
Settings: for viscosity / speed of sound / mass density: 102 kPa, Liquid; for viscosity: Concentric cylinders viscometry; for speed of sound: Single path-length method; for mass density: Vibrating tube method; for surface tension liquid-gas: 296 K, Pendant drop shape

CCC1CCCCC1 [ethylcyclohexane] + CCCCCCCCCCCCCCCC
Settings | mass density [kg/m3] | speed of sound [m/s] | viscosity [mPa·s]
293.15 K, x1 = 0.0997 | 773.92 | 1353.2 | 3.17
293.15 K, x1 = 0.1997 | 774.6 | 1348.2 | 2.87
293.15 K, x1 = 0.3 | 775.39 | 1343.1 | 2.57
293.15 K, x1 = 0.4 | 776.26 | 1337.8 | 2.26
293.15 K, x1 = 0.4999 | 777.42 | 1331.4 | 1.99
293.15 K, x1 = 0.55 | 778.05 | 1328.1 | 1.89
293.15 K, x1 = 0.6 | 778.71 | 1325.3 | 1.73
293.15 K, x1 = 0.7001 | 780.35 | 1317.5 | 1.48
293.15 K, x1 = 0.8003 | 782.34 | 1309.8 | 1.25
293.15 K, x1 = 0.9 | 784.8 | 1301.6 | 1.04
303.15 K, x1 = 0.0997 | 766.96 | 1315.5 | 2.54
303.15 K, x1 = 0.1997 | 767.62 | 1310.3 | 2.33
303.15 K, x1 = 0.3 | 768.36 | 1305.1 | 2.1
303.15 K, x1 = 0.4 | 769.18 | 1299.6 | 1.87
303.15 K, x1 = 0.4999 | 770.25 | 1292.9 | 1.67
303.15 K, x1 = 0.55 | 770.84 | 1289.4 | 1.58
303.15 K, x1 = 0.6 | 771.45 | 1286.4 | 1.46
303.15 K, x1 = 0.7001 | 772.96 | 1277.9 | 1.27
303.15 K, x1 = 0.8003 | 774.78 | 1269.5 | 1.07
303.15 K, x1 = 0.9 | 777.02 | 1260.2 | 0.896
313.15 K, x1 = 0.0997 | 760.01 | 1278.6 | 2.07
313.15 K, x1 = 0.1997 | 760.63 | 1273.4 | 1.9
313.15 K, x1 = 0.3 | 761.32 | 1268 | 1.74
313.15 K, x1 = 0.4 | 762.08 | 1262.2 | 1.56
313.15 K, x1 = 0.4999 | 763.06 | 1255.2 | 1.4
313.15 K, x1 = 0.55 | 763.61 | 1251.5 | 1.34
313.15 K, x1 = 0.6 | 764.16 | 1248.3 | 1.24
313.15 K, x1 = 0.7001 | 765.54 | 1239.2 | 1.08
313.15 K, x1 = 0.8003 | 767.19 | 1230 | 0.93
313.15 K, x1 = 0.9 | 769.2 | 1219.7 | 0.782
323.15 K, x1 = 0.0997 | 753.07 | 1242.7 | 1.73
323.15 K, x1 = 0.1997 | 753.64 | 1237.2 | 1.595
323.15 K, x1 = 0.3 | 754.28 | 1231.6 | 1.46
323.15 K, x1 = 0.4 | 754.97 | 1225.6 | 1.34
323.15 K, x1 = 0.4999 | 755.86 | 1218.3 | 1.21
323.15 K, x1 = 0.55 | 756.35 | 1214.3 | 1.15
323.15 K, x1 = 0.6 | 756.84 | 1211 | 1.09
323.15 K, x1 = 0.7001 | 758.08 | 1201.2 | 0.948
323.15 K, x1 = 0.8003 | 759.55 | 1191.3 | 0.822
323.15 K, x1 = 0.9 | 761.34 | 1180 | 0.693
333.15 K, x1 = 0.0997 | 746.13 | 1207.7 | 1.46
333.15 K, x1 = 0.1997 | 746.63 | 1202.1 | 1.355
333.15 K, x1 = 0.3 | 747.21 | 1196.2 | 1.25
333.15 K, x1 = 0.4 | 747.82 | 1189.9 | 1.16
333.15 K, x1 = 0.4999 | 748.62 | 1182.3 | 1.03
333.15 K, x1 = 0.55 | 749.06 | 1178 | 0.99
333.15 K, x1 = 0.6 | 749.49 | 1174.6 | 0.937
333.15 K, x1 = 0.7001 | 750.57 | 1164.1 | 0.821
333.15 K, x1 = 0.8003 | 751.86 | 1153.4 | 0.716
333.15 K, x1 = 0.9 | 753.41 | 1141.2 | 0.607

Settings | surface tension liquid-gas [mN/m]
x1 = 0.0997 | 26.8
x1 = 0.1997 | 26.7
x1 = 0.3 | 26.4
x1 = 0.4 | 26.2
x1 = 0.4999 | 26.3
x1 = 0.55 | 26.2
x1 = 0.6 | 26
x1 = 0.7001 | 25.9
x1 = 0.8003 | 25.7
x1 = 0.9 | 25.4
